Measurements published in ChEMBL document CHEMBL4765487, “From a Designer Drug to the Discovery of Selective Cannabinoid Type 2 Receptor Agonists with Favorable Pharmacokinetic Profiles for the Treatment of Systemic Sclerosis” (J Med Chem, 2021).
Activity calls are given as the source filed them. The rule behind the calls is not given here.

Assays:
[1] = target: Prostaglandin E2 receptor EP4 subtype (Homo sapiens) (UniProt P35408); test: Agonist activity at EP2 (unknown origin) at 10 uM
Homo sapiens = species on record: Homo sapiens; test: Selectivity index, ratio of EC50 for agonist activity at human CB1 receptor expressing CHO cells co-expressing Galpha16 by calcium mobilization assay to EC50 for agonist activity at human CB2 receptor expressing CHO cells co-expressing Galpha16 by calcium mobilization assay
Mus musculus [2] = test: Antifibrotic activity in BALB/c mouse model of BLM-induced systemic sclerosis assessed as reduction in TNF-alpha mRNA expression at 1 to 5 mg/kg, sc dosed once daily for 4 weeks by quantitative real-time PCR analysis; format: functional, organism-based; settings: dose 1-5 mg/kg
[3] = target: T1, Probable G-protein coupled receptor 132 (Homo sapiens) (UniProt Q9UNW8); test: Agonist activity at GPR132 (unknown origin) at 10 uM
T1 sequence (whole entry): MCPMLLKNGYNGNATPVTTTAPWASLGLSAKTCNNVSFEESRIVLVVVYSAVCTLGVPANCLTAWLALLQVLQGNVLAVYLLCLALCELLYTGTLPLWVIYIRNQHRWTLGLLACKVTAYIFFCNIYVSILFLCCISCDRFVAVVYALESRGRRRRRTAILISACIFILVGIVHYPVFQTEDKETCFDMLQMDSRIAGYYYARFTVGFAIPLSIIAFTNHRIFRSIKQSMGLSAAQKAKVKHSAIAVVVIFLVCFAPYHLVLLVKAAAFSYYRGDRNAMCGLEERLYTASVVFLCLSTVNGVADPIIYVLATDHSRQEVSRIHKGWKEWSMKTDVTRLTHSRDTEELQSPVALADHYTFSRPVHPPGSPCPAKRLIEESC

[4] = Volume of distribution in BALB/c mouse at 5 mg/kg, po measured during 0.083 to 24 hrs post dose by LC-MS/MS analysis; format: ADME, organism-based; settings: in vivo, time 0.083-24 hrs
[5] = target: Prostaglandin E2 receptor EP4 subtype (Homo sapiens) (UniProt P35408); test: Agonist activity at EP4 (unknown origin) at 10 uM
Cannabinoid receptor 1 [6] = target: T2, Cannabinoid receptor 1 (Homo sapiens, UniProt P21554); test: Agonist activity at human CB1 receptor expressed in HEK293 cells after 24 hrs by luciferase reporter gene assay based Tango beta-arrestin recruitment method; format: cell-based
[7] = target: T1, Probable G-protein coupled receptor 132 (Homo sapiens); test: Antagonist activity at GPR132 (unknown origin) at 10 uM
[8] = Cmax in BALB/c mouse at 5 mg/kg, po measured during 0.083 to 24 hrs post dose by LC-MS/MS analysis; format: ADME, organism-based; parameters: route oral, time 0.083-24 hrs, dose 5 mg/kg; settings: in vivo
Cannabinoid receptor 2 [9] = target: T3, Cannabinoid receptor 2 (Homo sapiens, UniProt P34972); test: Agonist activity at human CB2 receptor expressed in HEK293 cells assessed as inhibition of forskolin-induced cAMP production incubated for 15 mins by cAMP HTRF assay; format: functional, cell-based
Mus musculus [10] = test: Antifibrotic activity in BALB/c mouse model of BLM-induced systemic sclerosis assessed as reduction in TGF-beta mRNA expression at 1 to 5 mg/kg, sc dosed once daily for 4 weeks by quantitative real-time PCR analysis; format: functional, organism-based; settings: dose 1-5 mg/kg
[11] = target: T4, Glucose-dependent insulinotropic receptor (Homo sapiens) (UniProt Q8TDV5); test: Agonist activity at GPR119 (unknown origin) at 10 uM
T4 sequence (whole entry): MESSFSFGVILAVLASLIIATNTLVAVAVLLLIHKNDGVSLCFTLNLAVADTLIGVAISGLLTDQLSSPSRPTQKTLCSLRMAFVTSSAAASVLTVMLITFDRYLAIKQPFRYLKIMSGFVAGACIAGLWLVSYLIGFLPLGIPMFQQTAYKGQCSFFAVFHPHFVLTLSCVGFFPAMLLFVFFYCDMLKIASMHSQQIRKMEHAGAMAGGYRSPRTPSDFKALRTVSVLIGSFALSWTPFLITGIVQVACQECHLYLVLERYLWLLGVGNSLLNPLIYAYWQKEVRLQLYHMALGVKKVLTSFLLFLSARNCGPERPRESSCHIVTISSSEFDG

Cannabinoid receptor 1 [12] = target: T2, Cannabinoid receptor 1; test: Induction of receptor desensitization at human CB1 receptor expressing CHO cells co-expressing Galpha16 at 10 uM followed by washing with HBSS buffer upon incubation for 10 mins and restimulated with CP55940 by calcium mobilization assay; format: functional, cell-based; settings: filed as agonist
Cannabinoid receptor 1 [13] = target: T2, Cannabinoid receptor 1; test: Agonist activity at human CB1 receptor expressing CHO cells co-expressing Galpha16 by calcium mobilization assay relative to CP55940; format: functional, cell-based
[14] = AUC (0 to infinity) in BALB/c mouse at 5 mg/kg, po measured during 0.083 to 24 hrs post dose by LC-MS/MS analysis; format: ADME, organism-based; parameters: route oral, dose 5 mg/kg, time 0.083-24 hrs; settings: in vivo
[15] = Clearance in BALB/c mouse at 5 mg/kg, po measured during 0.083 to 24 hrs post dose by LC-MS/MS analysis; format: ADME, organism-based; settings: in vivo, time 0.083-24 hrs
Cannabinoid receptor 2 [16] = target: T3, Cannabinoid receptor 2; test: Agonist activity at human CB2 receptor expressing CHO cells co-expressing Galpha16 by calcium mobilization assay relative to CP55940; format: functional, cell-based; settings: filed as agonist
[17] = Oral bioavailability in BALB/c mouse at 5 mg/kg measured during 0.083 to 24 hrs post dose by LC-MS/MS analysis; format: ADME, organism-based; settings: in vivo, time 0.083-24 hrs
Mus musculus [18] = test: Antifibrotic activity in BALB/c mouse model of BLM-induced systemic sclerosis assessed as reduction in skin thickness at 5 mg/kg, sc dosed once daily for 4 weeks by H and E staining based analysis; format: functional, organism-based
Cannabinoid receptor 2 [19] = target: T3, Cannabinoid receptor 2; test: Agonist activity at human CB2 receptor expressed in CHO cells assessed as increase in ERK1/2 Thr202/Tyr204 phosphorylation at 10 uM incubated for 15 mins in presence of CB2 antagonist AM630 by Western blot analysis; format: cell-based
Mus musculus [20] = test: Antifibrotic activity in BALB/c mouse model of BLM-induced systemic sclerosis assessed as reduction in alpha-SMA expression at 1 to 5 mg/kg, sc dosed once daily for 4 weeks by immunohistochemical analysis; format: functional, organism-based; settings: dose 1-5 mg/kg
in vitro = settings: human, liver microsomes
[21] = Volume of distribution in BALB/c mouse at 1 mg/kg, iv measured during 0.083 to 24 hrs post dose by LC-MS/MS analysis; format: ADME, organism-based; settings: in vivo, time 0.083-24 hrs
[22] = Cmax in BALB/c mouse at 1 mg/kg, iv measured during 0.083 to 24 hrs post dose by LC-MS/MS analysis; format: ADME, organism-based; parameters: route intravenous, time upper 24 hrs, dose 1 mg/kg, time lower 0.083 hrs; settings: in vivo
[23] = target: Prostaglandin E2 receptor EP4 subtype (Homo sapiens) (UniProt P35408); test: Antagonist activity at EP2 (unknown origin) at 10 uM
Mus musculus [24] = test: Antifibrotic activity in BALB/c mouse model of BLM-induced systemic sclerosis assessed as reduction in alpha-SMA mRNA expression at 1 to 5 mg/kg, sc dosed once daily for 4 weeks by quantitative real-time PCR analysis; format: functional, organism-based; settings: dose 1-5 mg/kg
[25] = target: Prostaglandin E2 receptor EP4 subtype (Homo sapiens) (UniProt P35408); test: Antagonist activity at EP4 (unknown origin) at 10 uM
Cannabinoid receptor 2 [26] = target: T3, Cannabinoid receptor 2; test: Agonist activity at human CB2 receptor expressed in HEK293 cells after 24 hrs by luciferase reporter gene assay based Tango beta-arrestin recruitment method; format: cell-based
[27] = target: T4, Glucose-dependent insulinotropic receptor (Homo sapiens); test: Antagonist activity at GPR119 (unknown origin) at 10 uM
Mus musculus [28] = test: Antifibrotic activity in BALB/c mouse model of BLM-induced systemic sclerosis assessed as reduction in dermal pathological symptoms at 1 to 5 mg/kg, sc dosed once daily for 4 weeks by H and E staining based analysis; format: functional, organism-based; settings: dose 1-5 mg/kg

Chain of Prostaglandin E2 receptor EP4 subtype (Homo sapiens) (P35408 whole entry): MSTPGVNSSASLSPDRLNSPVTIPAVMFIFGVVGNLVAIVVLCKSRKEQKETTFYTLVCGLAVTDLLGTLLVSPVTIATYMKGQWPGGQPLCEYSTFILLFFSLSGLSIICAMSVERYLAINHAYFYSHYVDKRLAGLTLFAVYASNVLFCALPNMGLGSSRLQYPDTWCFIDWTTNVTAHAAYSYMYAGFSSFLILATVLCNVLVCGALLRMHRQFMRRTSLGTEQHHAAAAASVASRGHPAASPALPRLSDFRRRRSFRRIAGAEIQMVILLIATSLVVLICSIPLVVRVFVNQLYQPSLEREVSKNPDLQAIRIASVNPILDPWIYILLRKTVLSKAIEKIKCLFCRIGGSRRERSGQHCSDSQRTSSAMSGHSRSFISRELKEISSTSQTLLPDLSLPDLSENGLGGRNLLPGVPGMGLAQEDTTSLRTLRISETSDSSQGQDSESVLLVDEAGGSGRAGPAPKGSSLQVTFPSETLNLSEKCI
T2 sequence (P21554 whole entry): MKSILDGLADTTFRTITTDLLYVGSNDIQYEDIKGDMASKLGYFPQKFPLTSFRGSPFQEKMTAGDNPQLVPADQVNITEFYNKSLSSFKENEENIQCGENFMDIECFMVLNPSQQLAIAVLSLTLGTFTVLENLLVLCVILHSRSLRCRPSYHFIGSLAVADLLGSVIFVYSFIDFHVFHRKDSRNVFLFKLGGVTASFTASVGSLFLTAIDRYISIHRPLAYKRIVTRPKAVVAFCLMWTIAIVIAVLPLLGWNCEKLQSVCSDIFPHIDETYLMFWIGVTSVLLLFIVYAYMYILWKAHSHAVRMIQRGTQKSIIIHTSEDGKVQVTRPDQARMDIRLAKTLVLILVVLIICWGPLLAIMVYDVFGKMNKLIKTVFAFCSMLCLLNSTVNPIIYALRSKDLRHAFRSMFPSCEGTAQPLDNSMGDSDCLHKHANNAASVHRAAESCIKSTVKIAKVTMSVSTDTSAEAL
T3 sequence (P34972 whole entry): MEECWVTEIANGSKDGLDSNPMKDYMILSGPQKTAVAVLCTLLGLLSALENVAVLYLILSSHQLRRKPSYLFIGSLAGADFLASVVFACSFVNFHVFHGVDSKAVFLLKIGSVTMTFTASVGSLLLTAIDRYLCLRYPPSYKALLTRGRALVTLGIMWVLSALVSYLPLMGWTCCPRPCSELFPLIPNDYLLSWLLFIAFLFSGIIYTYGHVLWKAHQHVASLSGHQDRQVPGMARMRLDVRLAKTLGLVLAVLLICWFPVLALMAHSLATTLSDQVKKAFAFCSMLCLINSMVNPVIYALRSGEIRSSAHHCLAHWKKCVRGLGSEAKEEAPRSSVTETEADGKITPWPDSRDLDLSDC

CC(C)(CO)NC(=O)c1cc(C(C)(C)C)n(-c2ccc(C(F)(F)F)cn2)n1
Activity [1]: inactive | Ratio EC50 (Homo sapiens): > 100 | Activity (Mus musculus [2]): Active | Activity [3]: inactive | Vd [4]: 9.2 L/kg | Activity [5]: inactive | EC50 (Cannabinoid receptor 1 [6]): > 10000 nM | Activity [7]: inactive | Cmax [8]: 603 ng/mL | EC50 (Cannabinoid receptor 2 [9]): 10.7 nM | Activity (Mus musculus [10]): Active | Activity [11]: inactive | Activity (Cannabinoid receptor 1 [12]): Active | Emax (Cannabinoid receptor 1 [13]): 30% | AUC(0-inf) [14]: 1670 ng·h/mL | CL/F [15]: 51.7 mL/min/kg | Emax (Cannabinoid receptor 2 [16]): 100% | bioavailability [17]: 79.5% | Activity (Mus musculus [18]): Active | Activity (Cannabinoid receptor 2 [19]): inactive | Activity (Mus musculus [20]): Active | microsomal CLint at 1 µM (in vitro): 12.3 µL/min/mg | Vd [21]: 4.5 L/kg | Cmax [22]: 959 ng/mL | Activity [23]: inactive | Activity (Mus musculus [24]): Active | Activity [25]: inactive | EC50 (Cannabinoid receptor 2 [26]): 562 nM | Activity [27]: inactive | Activity (Mus musculus [28]): Active
